Laboratory results as given in ChEMBL document CHEMBL1201861, “Genomics of Drug Sensitity in Cancer screening data, Wellcome Trust Sanger Institute”.

Columns and labels:
Experiment in all cases: cells
KNS-42 = type: functional, cell-based, Homo sapiens; details: Homo sapiens, KNS-42;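 also: growth inhibition of KNS-42 cells, read out with a cell viability assay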
COLO-792 = type: functional, cell-based, Homo sapiens; details: Homo sapiens, COLO-792
COR-L88 = type: functional, cell-based; details: Homo sapiens;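 also: growth inhibition of COR-L88 cells, read out with a cell viability assay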
CTB-1 = type: functional, cell-based; details: Homo sapiens
D-502MG = type: functional, cell-based, Homo sapiens; details: Homo sapiens, D-502MG
HSC-2 = type: functional, cell-based, Homo sapiens; details: Homo sapiens, HSC-2;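 also: growth inhibition of human HSC-2 cells, read out by a cell viability assay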
COLO-678 = type: functional, cell-based, Homo sapiens; details: Homo sapiens, COLO-678
DJM-1 = type: functional, cell-based, Homo sapiens; details: Homo sapiens, DJM-1;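 also: growth inhibition of human DJM-1 cells, read out by a cell viability assay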
BB30-HNC = type: functional, cell-based, Homo sapiens; details: Homo sapiens, BB30-HNC;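 also: growth inhibition of the cultured cell line, read out by a cell viability assay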
HT-29 = type: functional, cell-based, Homo sapiens; details: Homo sapiens, HT-29;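 also: growth inhibition of human HT-29 cells, read out by a cell viability assay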
NCI-H2170 = type: functional, cell-based, Homo sapiens; details: Homo sapiens, NCI-H2170;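 also: cell viability assay measuring growth inhibition of human NCI-H2170 cancer cells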
COLO-680N = type: functional, cell-based, Homo sapiens; details: Homo sapiens, COLO-680N;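 also: cell viability assay used to measure inhibition of COLO-680N cell growth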
LAMA-84 = type: functional, cell-based; details: Homo sapiens;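 also: growth inhibition of LAMA-84 cells, read out with a cell viability assay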
YKG-1 = type: functional, cell-based, Homo sapiens; details: Homo sapiens, YKG-1;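 also: cell growth inhibition, read out with a viability assay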
LU-99A = type: functional, cell-based, Homo sapiens; details: Homo sapiens, LU-99A;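 also: growth inhibition of LU-99A cells, read out with a cell viability assay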
769-P = type: functional, cell-based, Homo sapiens; details: Homo sapiens, 769-P
NCI-H28 = type: functional, cell-based, Homo sapiens; details: Homo sapiens, NCI-H28;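 also: growth inhibition of human NCI-H28 cells, read out as cell viability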
NCI-H1623 = type: functional, cell-based, Homo sapiens; details: Homo sapiens, NCI-H1623;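 also: cell viability assay used as the read-out for growth inhibition of NCI-H1623 cells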
BV-173 = type: functional, cell-based; details: Homo sapiens
SAOS-2 = type: functional, cell-based, Homo sapiens; details: Homo sapiens, SAOS-2;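 also: growth inhibition of human Saos-2 cells determined by a cell viability assay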
GT3TKB = type: functional, cell-based, Homo sapiens; details: Homo sapiens, GT3TKB;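 also: growth inhibition of the cell line, read out with a cell viability assay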
CP50-MEL-B = type: functional, cell-based, Homo sapiens; details: Homo sapiens, CP50-MEL-B;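 also: growth inhibition of the human cell line, measured with a cell viability read-out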
J82 = type: functional, cell-based; details: Homo sapiens;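 also: growth inhibition of J82 cells, read out with a cell viability assay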
HD-MY-Z = type: functional, cell-based, Homo sapiens; details: Homo sapiens, HD-MY-Z;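 also: growth inhibition of HD-MY-Z cells, read out with a cell viability assay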
NCI-H2122 = type: functional, cell-based, Homo sapiens; details: Homo sapiens, NCI-H2122;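 also: growth inhibition of the cells, read out with a cell viability assay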
Calu-6 = type: functional, cell-based, Homo sapiens; details: Homo sapiens, Calu-6;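 also: growth of human Calu-6 cells, read out by a cell viability assay, IC50 marking inhibition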
SHP77 = type: functional, cell-based, Homo sapiens, SHP-77; details: Homo sapiens, SHP77;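 also: growth inhibition of human SHP-77 cells measured by a cell viability assay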
SK-PN-DW = type: functional, cell-based; details: Homo sapiens;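 also: growth inhibition measured with a viability assay on these cells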
RPMI-8866 = type: functional, cell-based; details: Homo sapiens
VM-CUB-1 = type: functional, cell-based; details: Homo sapiens;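 also: cell viability assay measuring growth inhibition of the human VM-CUB-1 cell line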
C2BBe1 = type: functional, cell-based, Homo sapiens; details: Homo sapiens, C2BBe1;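 also: growth inhibition of C2BBe1 cells, read out through a viability assay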
LXF-289 cell line = type: functional, cell-based, Homo sapiens; details: Homo sapiens, LXF-289
BHT-101 = type: functional, cell-based, Homo sapiens; details: Homo sapiens, BHT-101
PC-14 = type: functional, cell-based, Homo sapiens; details: Homo sapiens, PC-14;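 also: cell viability assay measuring inhibition of PC-14 cell growth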
A204 = type: functional, cell-based, Homo sapiens; details: Homo sapiens, A204;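 also: growth inhibition of human A204 cells, read out with a cell viability assay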
NB13 = type: functional, cell-based, Homo sapiens; details: Homo sapiens, NB13;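 also: cell viability readout measuring growth inhibition of human NB13 cells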
BPH-1 = type: functional, cell-based, Homo sapiens; details: Homo sapiens, BPH-1;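 also: cell viability assay measuring growth inhibition of human BPH-1 cells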
TK-10 = type: functional, cell-based, Homo sapiens; details: Homo sapiens, TK-10;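 also: growth inhibition of TK-10 cells, read out in a cell viability assay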
PANC-03-27 = type: functional, cell-based, Homo sapiens; details: Homo sapiens, PANC-03-27
LAN-6 = type: functional, cell-based, Homo sapiens; details: Homo sapiens, LAN-6;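 also: growth inhibition of LAN-6 cells, determined with a cell viability assay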
CAL-12T = type: functional, cell-based, Homo sapiens; details: Homo sapiens, CAL-12T;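 also: growth inhibition of human CAL-12T cells, read out with a cell viability assay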
KYSE-180 = type: functional, cell-based, Homo sapiens; details: Homo sapiens, KYSE-180;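 also: growth inhibition of KYSE-180 cells, read out with a cell viability assay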
CGTH-W-1 = type: functional, cell-based, Homo sapiens; details: Homo sapiens, CGTH-W-1;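 also: growth inhibition of human CGTH-W-1 cells measured by cell viability assay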
GAK = type: functional, cell-based, Homo sapiens; details: Homo sapiens, GAK;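 also: cell growth inhibition read out by a cell viability assay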
LN-405 = type: functional, cell-based, Homo sapiens; details: Homo sapiens, LN-405
MHH-ES-1 = type: functional, cell-based, Homo sapiens; details: Homo sapiens, MHH-ES-1;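 also: cell growth inhibition measured by a cell viability assay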
TE-9 = type: functional, cell-based, Homo sapiens; details: Homo sapiens, TE-9;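 also: cell growth inhibition, measured with a cell viability readout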
SK-MEL-28 = type: functional, cell-based; details: Homo sapiens;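 also: growth inhibition of human SK-MEL-28 cells, read out with a cell viability assay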
SNU-C2B = type: functional, cell-based, Homo sapiens; details: Homo sapiens, SNU-C2B;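 also: cell viability readout used to measure compound-driven suppression of SNU-C2B cell proliferation, IC50 marking half-maximal growth inhibition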
J-RT3-T3-5 = type: functional, cell-based; details: Homo sapiens;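 also: cell viability assay measuring growth inhibition of human J-RT3-T3-5 cells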
A-427 = type: functional, cell-based, Homo sapiens; details: Homo sapiens, A-427;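 also: growth inhibition of human A-427 cells, read out by a cell viability assay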

With `CN(C)C/C=C/C(=O)Nc1cc2c(Nc3ccc(F)c(Cl)c3)ncnc2cc1O[C@H]1CCOC1` [AFATINIB] the IC50 (KNS-42) was over 0.5 µM, the IC50 (COLO-792) was over 0.5 µM and the IC50 (COR-L88) was over 0.5 µM. For the same molecule, the IC50 (CTB-1) was over 0.5 µM, the IC50 (D-502MG) was over 0.5 µM and the IC50 (HSC-2) was 0.168 µM. The IC50 (COLO-678) was over 0.5 µM, the IC50 (DJM-1) was over 0.5 µM and the IC50 (BB30-HNC) was 0.166 µM. For the same molecule, the IC50 (HT-29) was over 0.5 µM, the IC50 (NCI-H2170) was 0.0373 µM and the IC50 (COLO-680N) was over 0.5 µM. The IC50 (LAMA-84) was over 0.5 µM, the IC50 (YKG-1) was over 0.5 µM and the IC50 (LU-99A) was over 0.5 µM. The IC50 (769-P) was over 0.5 µM, the IC50 (NCI-H28) was over 0.5 µM and the IC50 (NCI-H1623) was 0.0802 µM. It also gave an IC50 (BV-173) of 0.176 µM, an IC50 (SAOS-2) of over 0.5 µM and an IC50 (GT3TKB) of over 0.5 µM. It also gave an IC50 (CP50-MEL-B) of over 0.5 µM, an IC50 (J82) of over 0.5 µM and an IC50 (HD-MY-Z) of over 0.5 µM. For the same molecule, the IC50 (NCI-H2122) was over 0.5 µM, the IC50 (Calu-6) was over 0.5 µM and the IC50 (SHP77) was over 0.5 µM. For the same molecule, the IC50 (SK-PN-DW) was over 0.5 µM, the IC50 (RPMI-8866) was over 0.5 µM and the IC50 (VM-CUB-1) was over 0.5 µM. For the same molecule, the IC50 (C2BBe1) was over 0.5 µM, the IC50 (LXF-289 cell line) was over 0.5 µM and the IC50 (BHT-101) was over 0.5 µM. The IC50 (PC-14) was 0.0567 µM, the IC50 (A204) was over 0.5 µM and the IC50 (NB13) was over 0.5 µM. The IC50 (BPH-1) was 0.0599 µM, the IC50 (TK-10) was 0.267 µM and the IC50 (PANC-03-27) was over 0.5 µM. It also gave an IC50 (LAN-6) of over 0.5 µM, an IC50 (CAL-12T) of over 0.5 µM and an IC50 (KYSE-180) of 0.391 µM. The IC50 (CGTH-W-1) was over 0.5 µM, the IC50 (GAK) was […] and the IC50 (LN-405) was over 0.5 µM. The IC50 (MHH-ES-1) was over 0.5 µM, the IC50 (TE-9) was over 0.5 µM and the IC50 (SK-MEL-28) was over 0.5 µM. For the same molecule, the IC50 (SNU-C2B) was over 0.5 µM, the IC50 (J-RT3-T3-5) was over 0.5 µM and the IC50 (A-427) was over 0.5 µM.
`COc1ccc(-c2ccc3c(N4CCOC[C@@H]4C)nc(N4CCOC[C@@H]4C)nc3n2)cc1CO` [AZD-8055] was tested, and the IC50 (KNS-42) was over 2 µM, the IC50 (COLO-792) was over 2 µM and the IC50 (COR-L88) was 0.423 µM. It also gave an IC50 (CTB-1) of 0.272 µM, an IC50 (D-502MG) of over 2 µM and an IC50 (HSC-2) of 1.91 µM. For the same molecule, the IC50 (COLO-678) was over 2 µM, the IC50 (DJM-1) was 1.62 µM and the IC50 (BB30-HNC) was 1.86 µM. For the same molecule, the IC50 (HT-29) was over 2 µM, the IC50 (NCI-H2170) was over 2 µM and the IC50 (COLO-680N) was 1.82 µM. The IC50 (LAMA-84) was 0.18 µM, the IC50 (YKG-1) was 1.61 µM and the IC50 (LU-99A) was 0.776 µM. For the same molecule, the IC50 (769-P) was over 2 µM, the IC50 (NCI-H28) was 0.587 µM and the IC50 (NCI-H1623) was 0.763 µM. The IC50 (BV-173) was 0.0906 µM, the IC50 (SAOS-2) was 1.82 µM and the IC50 (GT3TKB) was over 2 µM. For the same molecule, the IC50 (CP50-MEL-B) was 0.884 µM, the IC50 (J82) was over 2 µM and the IC50 (HD-MY-Z) was 0.841 µM. The IC50 (NCI-H2122) was over 2 µM, the IC50 (Calu-6) was over 2 µM and the IC50 (SHP77) was over 2 µM. For the same molecule, the IC50 (SK-PN-DW) was 1.76 µM, the IC50 (RPMI-8866) was 0.858 µM and the IC50 (VM-CUB-1) was 0.473 µM. The IC50 (C2BBe1) was 1.17 µM, the IC50 (LXF-289 cell line) was 0.25 µM and the IC50 (BHT-101) was 0.408 µM. It also gave an IC50 (PC-14) of 0.59 µM, an IC50 (A204) of 0.19 µM and an IC50 (NB13) of 1.14 µM. The IC50 (BPH-1) was 0.884 µM, the IC50 (TK-10) was 1.36 µM and the IC50 (PANC-03-27) was 1.03 µM. The IC50 (LAN-6) was over 2 µM, the IC50 (CAL-12T) was 0.78 µM and the IC50 (KYSE-180) was 1.11 µM. It also gave an IC50 (CGTH-W-1) of 1.56 µM, an IC50 (GAK) of 1.32 µM and an IC50 (LN-405) of 1.28 µM. For the same molecule, the IC50 (MHH-ES-1) was 0.835 µM, the IC50 (TE-9) was over 2 µM and the IC50 (SK-MEL-28) was 0.559 µM. The IC50 (SNU-C2B) was over 2 µM, the IC50 (J-RT3-T3-5) was 0.532 µM and the IC50 (A-427) was 0.962 µM.
With `O=C(NOCC1CC1)c1ccc(F)c(F)c1Nc1ccc(I)cc1Cl` [CI-1040] the IC50 (KNS-42) was over 10 µM, the IC50 (COLO-792) was 2.84 µM and the IC50 (COR-L88) was over 10 µM. For the same molecule, the IC50 (CTB-1) was 3.47 µM, the IC50 (D-502MG) was over 10 µM and the IC50 (HSC-2) was over 10 µM. It also gave an IC50 (COLO-678) of 7.71 µM, an IC50 (DJM-1) of over 10 µM and an IC50 (BB30-HNC) of over 10 µM. It also gave an IC50 (HT-29) of 5.98 µM, an IC50 (NCI-H2170) of over 10 µM and an IC50 (COLO-680N) of over 10 µM. It also gave an IC50 (LAMA-84) of 3.14 µM, an IC50 (YKG-1) of 9.75 µM and an IC50 (LU-99A) of 5.66 µM. For the same molecule, the IC50 (769-P) was over 10 µM, the IC50 (NCI-H28) was over 10 µM and the IC50 (NCI-H1623) was over 10 µM. For the same molecule, the IC50 (BV-173) was 1.44 µM, the IC50 (SAOS-2) was over 10 µM and the IC50 (GT3TKB) was 5.47 µM. For the same molecule, the IC50 (CP50-MEL-B) was 0.173 µM, the IC50 (J82) was over 10 µM and the IC50 (HD-MY-Z) was 1.57 µM. It also gave an IC50 (NCI-H2122) of 6.62 µM, an IC50 (Calu-6) of 6.8 µM and an IC50 (SHP77) of over 10 µM. For the same molecule, the IC50 (SK-PN-DW) was over 10 µM, the IC50 (RPMI-8866) was 6.21 µM and the IC50 (VM-CUB-1) was over 10 µM. The IC50 (C2BBe1) was 0.81 µM, the IC50 (LXF-289 cell line) was over 10 µM and the IC50 (BHT-101) was 0.286 µM. The IC50 (PC-14) was over 10 µM, the IC50 (A204) was over 10 µM and the IC50 (NB13) was over 10 µM. It also gave an IC50 (BPH-1) of 1.9 µM, an IC50 (TK-10) of 6.33 µM and an IC50 (PANC-03-27) of 3.35 µM. It also gave an IC50 (LAN-6) of 4.32 µM, an IC50 (CAL-12T) of 8.66 µM and an IC50 (KYSE-180) of over 10 µM. It also gave an IC50 (CGTH-W-1) of 3.86 µM, an IC50 (GAK) of 3.33 µM and an IC50 (LN-405) of over 10 µM. It also gave an IC50 (MHH-ES-1) of over 10 µM, an IC50 (TE-9) of over 10 µM and an IC50 (SK-MEL-28) of 0.304 µM. The IC50 (SNU-C2B) was over 10 µM, the IC50 (J-RT3-T3-5) was over 10 µM and the IC50 (A-427) was 3.6 µM.
